Measurements published in patent US4416884A, “Piperazinylbenzoheterocyclic compounds” (Otsuka Pharmaceutical Co., Ltd., priority 1978, dated 1983).
Values after ≈ are worked out from the molar mass of the structure shown. Where a name gives a salt, the structure may show the parent alone. Read-outs that look alike come from different tables or passages of the source.

Key:
Experiment in all cases: antimicrobial activity, serial dilution method on agar plate
Type in all cases: cell-based
[1] = system: Escherichia Coli NIHJ JC-2 (IFO 12734); details: Escherichia coli, read-out: Minimum Inhibitory Concentration
Protocol: (§1) The antimicrobial activity of the following test compounds on various test organisms listed below was determined by the serial dilution method on agar plate (Heart Infusion agar produced by Difco Co.) (see CHEMOTHERAPY 22, pp. 1126-1128 (1974)), and the minimum inhibitory concentrations (mcg/ml) obtained are shown in Table 1 below.
(§2) A sample of each test organism was prepared so that the population of the organism was 1×10^8 cells/ml (O.D. 660 mμ=0.07 to 0.16) and 1×10^6 cells/ml (which was obtained by diluting the above 1×10^8 cells/ml preparation).

Klebsiella pneumoniae = system: Klebsiella pneumoniae
Protocol: as §1, §2

Proteus rettgeri NIH 96 = details: Providencia rettgeri
Protocol: as §1, §2

[2] = system: Pseudomonas aeruginosa ATCC 10145
Protocol: as §1, §2

[3] = system: Pseudomonas aeruginosa E-2
Protocol: as §1, §2

[4] = system: Pseudomonas aeruginosa NCTC 10490
Protocol: as §1, §2

[5] = system: Salmonella typhi 0-901 (NCTC 8393); details: Salmonella enterica
Protocol: as §1, §2

[6] = system: Serattia marcescens IFO 12648
Protocol: as §1, §2

Shigella Sonnei EW 33 = details: inoculum 1 × 10^8 cells/ml, read-out: Minimum Inhibitory Concentration
Protocol: as §1, §2

[7] = system: Staphylococcus aureus FDA 209 P
Protocol: as §1, §2

[8] = inoculum 1 × 10^8 cells/ml, read-out: Minimum Inhibitory Concentration
[9] = NIH96, inoculum 1 × 10^8 cells/ml, read-out: Minimum Inhibitory Concentration
[10] = ATCC10145, inoculum 1 × 10^8 cells/ml, read-out: Minimum Inhibitory Concentration
[11] = E2, inoculum 1 × 10^8 cells/ml, read-out: Minimum Inhibitory Concentration
[12] = NCTC10490, inoculum 1 × 10^8 cells/ml, read-out: Minimum Inhibitory Concentration
[13] = read-out: Minimum Inhibitory Concentration, inoculum 1 × 10^8 cells/ml
[14] = FDA209, inoculum 1 × 10^8 cells/ml, read-out: Minimum Inhibitory Concentration

CN1CCN(c2ccc3c(=O)c(C(=O)O)cn4c3c2CCC4)CC1 [Compound L, 8-(4-Methyl-1-piperazinyl)-6,7-dihydro-1-oxo-1H,5H--benzo[ij]quinolizine-2-carboxylic acid]
MIC ([1]; inoculum 1 × 10^8 cells/ml): 1.6 µg/mL (≈ 4.89 µM) | MIC (Klebsiella pneumoniae; [8]): 6.3 µg/mL (≈ 19.2 µM) | MIC (Proteus rettgeri NIH 96; [9]): 3.1 µg/mL (≈ 9.47 µM) | MIC [2, 10]: 50 µg/mL (≈ 153 µM) | MIC [3, 11]: 50 µg/mL (≈ 153 µM) | MIC [4, 12]: 50 µg/mL (≈ 153 µM) | MIC [5, 13]: 3.1 µg/mL (≈ 9.47 µM) | MIC [6, 8]: 6.3 µg/mL (≈ 19.2 µM) | MIC (Shigella Sonnei EW 33): 3.1 µg/mL (≈ 9.47 µM) | MIC [7, 14]: 6.3 µg/mL (≈ 19.2 µM)

O=CN1CCN(c2ccc3c(=O)c(C(=O)O)cn4c3c2CCC4)CC1 [Compound M, 8-(4-Formyl-1-piperazinyl)-6,7-dihydro-1-oxo-1H,5H--benzo[ij]quinolizine-2-carboxylic acid]
MIC ([1]; inoculum 1 × 10^8 cells/ml): 1.6 µg/mL (≈ 4.69 µM) | MIC (Klebsiella pneumoniae; [8]): 3.1 µg/mL (≈ 9.08 µM) | MIC (Proteus rettgeri NIH 96; [9]): 1.6 µg/mL (≈ 4.69 µM) | MIC [2, 10]: 25 µg/mL (≈ 73.2 µM) | MIC [3, 11]: 25 µg/mL (≈ 73.2 µM) | MIC [4, 12]: 12.5 µg/mL (≈ 36.6 µM) | MIC [5, 13]: 0.8 µg/mL (≈ 2.34 µM) | MIC [6, 8]: 3.1 µg/mL (≈ 9.08 µM) | MIC (Shigella Sonnei EW 33): 1.6 µg/mL (≈ 4.69 µM) | MIC [7, 14]: 3.1 µg/mL (≈ 9.08 µM)

O=C(O)c1cn2c3c(c(N4CCN(C(=O)c5ccccc5)CC4)ccc3c1=O)CCC2 [Compound N, 8-(4-Benzoyl-1-piperazinyl)-6,7-dihydro-1-oxo-1H,5H--benzo[ij]quinolizine-2-carboxylic acid]
MIC ([1]; inoculum 1 × 10^8 cells/ml): 6.3 µg/mL (≈ 15.1 µM) | MIC (Klebsiella pneumoniae; [8]): 6.3 µg/mL (≈ 15.1 µM) | MIC (Proteus rettgeri NIH 96; [9]): 6.3 µg/mL (≈ 15.1 µM) | MIC [2, 10]: 50 µg/mL (≈ 120 µM) | MIC [3, 11]: 100 µg/mL (≈ 240 µM) | MIC [4, 12]: 25 µg/mL (≈ 59.9 µM) | MIC [5, 13]: 1.6 µg/mL (≈ 3.83 µM) | MIC [6, 8]: 12.5 µg/mL (≈ 29.9 µM) | MIC (Shigella Sonnei EW 33): 3.1 µg/mL (≈ 7.43 µM) | MIC [7, 14]: 3.1 µg/mL (≈ 7.43 µM)

CS(=O)(=O)N1CCN(c2ccc3c(=O)c(C(=O)O)cn4c3c2CCC4)CC1 [Compound O, 8-(4-Methanesulfonyl-1-piperazinyl)-6,7-dihydro-1-oxo-1H,5H--benzo[ij]quinolizine-2-carboxylic acid]
MIC ([1]; inoculum 1 × 10^8 cells/ml): 6.3 µg/mL (≈ 16.1 µM) | MIC (Klebsiella pneumoniae; [8]): 6.3 µg/mL (≈ 16.1 µM) | MIC (Proteus rettgeri NIH 96; [9]): 6.3 µg/mL (≈ 16.1 µM) | MIC [2, 10]: 100 µg/mL (≈ 255 µM) | MIC [3, 11]: 100 µg/mL (≈ 255 µM) | MIC [4, 12]: 25 µg/mL (≈ 63.9 µM) | MIC [5, 13]: 1.6 µg/mL (≈ 4.09 µM) | MIC [6, 8]: 12.5 µg/mL (≈ 31.9 µM) | MIC (Shigella Sonnei EW 33): 6.3 µg/mL (≈ 16.1 µM) | MIC [7, 14]: 3.1 µg/mL (≈ 7.92 µM)

O=C(O)c1cn2c3c(c(N4CCNCC4)c(Cl)cc3c1=O)CCC2 [Compound P, 9-Chloro-8-(1-piperazinyl)-6,7-dihydro-1-oxo-1H,5H--benzo[ij]quinolizine-2-carboxylic acid hydrochloride]
MIC [1]: 1.6 µg/mL | MIC (Klebsiella pneumoniae; [13]): 0.8 µg/mL | MIC (Proteus rettgeri NIH 96; NIH96, read-out: Minimum Inhibitory Concentration, inoculum 1 × 10^8 cells/ml): 0.4 µg/mL | MIC ([2]; ATCC10145, read-out: Minimum Inhibitory Concentration, inoculum 1 × 10^8 cells/ml): 6.3 µg/mL | MIC ([3]; E2, read-out: Minimum Inhibitory Concentration, inoculum 1 × 10^8 cells/ml): 6.3 µg/mL | MIC ([4]; NCTC10490, read-out: Minimum Inhibitory Concentration, inoculum 1 × 10^8 cells/ml): 6.3 µg/mL | MIC [5, 8]: 0.8 µg/mL | MIC [6, 13]: 1.6 µg/mL | MIC (Shigella Sonnei EW 33): 1.6 µg/mL | MIC ([7]; FDA209, read-out: Minimum Inhibitory Concentration, inoculum 1 × 10^8 cells/ml): 6.3 µg/mL
